Results published in ChEMBL document CHEMBL1857833, “Screening and optimization of specific chemical series against human African Trypanosomiasis (HAT)”.
Converted amounts (≈) assume the structure as drawn. “And” between values parts separate entries of the source, which are not always exact repeats. Equal values may be shown once.

Key:
[1] = system: Trypanosoma cruzi; experiment: DNDI: Inhibition of Chagas Disease parasite Trypanosoma cruzi (Tulahuen LacZ, Clone C4), in vitro.; format: functional, organism-based
[2] = DNDI: Cytotoxicity against L929 mouse fibroblasts, CYTO-SP, 24 hour; format: toxicity, cell-based; conditions: mouse, L929 mouse fibroblasts
[3] = DNDI: Cytotoxicity against L-6 rat myoblasts from skeletal muscle cells; format: toxicity, cell-based, L6; conditions: L-6 rat skeletal muscle myoblasts
[4] = DNDI: Cytotoxicity against L929 mouse fibroblasts, 72 hour.; format: toxicity, cell-based; conditions: mouse, L929 mouse fibroblasts
[5] = system: Trypanosoma brucei; experiment: DNDI: Inhibition of Human African Trypanosomiasis, SBRI 427, in vitro; format: functional, organism-based
[6] = system: Trypanosoma brucei rhodesiense; experiment: DNDI: Inhibition of Human African Trypanosomiasis (HAT), STIB 900, in vitro; format: functional, organism-based
[7] = system: Leishmania donovani; experiment: DNDI: Inhibition of formation of Leishmania donovani (strain MHOM/ET/67/L82) axenic amastigotes, in vitro.; format: functional, organism-based
[8] = DNDI: Lipophilicity measured in Chromatographic hydrophobicity index (CHI) assay, pH 7.4; format: physicochemical; conditions: buffer
[9] = system: Plasmodium falciparum; experiment: DNDI: Inhibition of the malaria parasite Plasmodium falciparum, in vitro; format: functional, organism-based; conditions: K1
[10] = DNDI: half life in human liver microsomes at a concentration of 10uM; format: ADME, Microsome
[11] = DNDI: in vitro intrinsic clearance in human liver microsomes at a concentration of 10uM; format: ADME, Microsome
[12] = DNDI: in vitro intrinsic clearance in mouse liver microsomes at a concentration of 10uM; format: ADME, Microsome; conditions: read-out: CLint in vitro
[13] = DNDI: half life in mouse liver microsomes at a concentration of 10uM; format: ADME, Microsome
[14] = DNDI: Solubility in phosphate buffered saline at pH7.4 measured by optical density (turbidimetry) at room temperature (OD-RT); format: physicochemical; conditions: pH 7.4
[15] = system: Trypanosoma brucei; experiment: DNDI: Inhibition of Human African Trypanosomiasis, Cross 22, in vitro; format: functional, organism-based
[16] = mouse, microsomes, 1 µM
Description: DNDI: in vitro intrinsic clearance in mouse liver microsomes at a concentration of 1uM

[17] = in vitro; conditions: mouse, microsomes, t (1 / 2)
Description: DNDI: half life in mouse liver microsomes at a concentration of 1uM

[18] = Trypanosoma brucei, SBRI 427, read-out: IC50

| Compound | IC50 [1] [µg/mL] | IC50 at 24 h [2] [µg/mL] | IC50 [3] [µg/mL] | IC50 at 72 h [4] [µg/mL] | IC50 [5, 18] [µg/mL] | IC50 [6] [µg/mL] | IC50 [7] [µg/mL] | chromatographic logD [8] | IC50 [9] [µg/mL] | half-life at 10 µM [10] [h] | CLint in vitro [11] [µL/min/mg] | microsomal CLint at 10 µM [12] [µL/min/mg] | half-life at 10 µM [13] [h] | solubility kinetic [14] [µM] | IC50 [15] [µg/mL] | IC50 [5] | CLint in vitro [16] [µL/min/mg] | half-life at 1 µM [17] [min] |
| --- | --- | --- | --- | --- | --- | --- | --- | --- | --- | --- | --- | --- | --- | --- | --- | --- | --- | --- |
| O/N=C(\NC1CCCC1)c1ccccc1-c1ccccc1 | 21.4 (≈ 76.3 µM) | > 50 | > 90 | > 10 | 1.17 (≈ 4.17 µM) | 18.5 (≈ 66 µM) | 53.1 (≈ 189 µM) | 4.3 | 2.57 (≈ 9.17 µM) | 4.33 | 11 | 243 | 0.2 | 50 (≈ 14 µg/mL) | – | – | – | – |
| CCCCCC(C)NCc1coc(-c2ccc(Cl)cc2)n1 (configuration not stated) | 11.3 (≈ 36.8 µM) | 17 (≈ 55.4 µM) | 10.9 (≈ 35.4 µM) | 4.88 (≈ 15.9 µM) | 1.7 (≈ 5.54 µM) | 0.478 (≈ 1.56 µM) | 18.7 (≈ 60.8 µM) | 5.02 | 2.6 (≈ 8.47 µM) | – | – | 17 | 2.88 | 6.3 (≈ 1.93 µg/mL) | 1.54 (≈ 5.02 µM) | 0.95 µg/mL and 1.02 µg/mL | – | – |
| CCCCCC(C)NCc1ccc(-c2ccccc2)cc1 (configuration not stated) | – | > 50 | – | < 3.13 | 0.66 (≈ 2.35 µM) | – | – | 4.2 | – | 1.9 | 25 | 126 | 0.383 | 12.5 (≈ 3.52 µg/mL) | – | – | – | – |
| CCCCCC(C)NCc1coc(-c2ccc(C)cc2)n1 (configuration not stated) | 15.7 (≈ 54.8 µM) | 17 (≈ 59.4 µM) | 12.6 (≈ 43.9 µM) | 5.76 (≈ 20.1 µM) | 1.95 (≈ 6.81 µM) | 0.582 (≈ 2.03 µM) | 13.6 (≈ 47.6 µM) | 4.66 | 1.83 (≈ 6.39 µM) | – | – | 31 | 1.57 | 12.5 (≈ 3.58 µg/mL) | – | – | – | – |
| CCCCCC(C)NCc1coc(-c2ccc(-c3ccccc3)cc2)n1 (configuration not stated) | 6.4 (≈ 18.4 µM) | > 50 | 6.78 (≈ 19.5 µM) | 1.83 (≈ 5.25 µM) | 0.24 (≈ 0.689 µM) | 0.321 (≈ 0.921 µM) | 5 (≈ 14.3 µM) | 4.94 | 1.68 (≈ 4.82 µM) | 79.5 | 1 | 5 | 9.55 | < 1 | 0.4 (≈ 1.15 µM) | 0.25 µg/mL and 0.42 µg/mL | – | – |
| CCCCCC(C)NCc1coc(-c2cccc(OC)c2)n1 (configuration not stated) | – | 18 (≈ 59.5 µM) | – | 6.95 (≈ 23 µM) | 2.26 (≈ 7.47 µM) | – | – | 4.32 | – | 2.12 | 23 | 53 | 0.9 | – | – | – | – | – |
| O/N=C(\NC1CCCCC1)c1ccccc1 | > 30 | 50 (≈ 229 µM) | 49.7 (≈ 227 µM) | > 10 | 0.92 (≈ 4.21 µM) | 13.6 (≈ 62.3 µM) | 40.9 (≈ 187 µM) | 3.9 | > 5 | 4.82 | 10 | 82 | 0.583 | > 200 | – | – | 111 | 8 |
| CCCCCC(C)NCc1coc(-c2ccc(OC)cc2)n1 (configuration not stated) | 2.9 (≈ 9.59 µM) | 33 (≈ 109 µM) | 16 (≈ 53 µM) | > 10 | 2.13 (≈ 7.04 µM) | 1.06 (≈ 3.51 µM) | 12.4 (≈ 41.1 µM) | 4.16 | 1.77 (≈ 5.85 µM) | 1.1 | 44 | 15 | 3.17 | 6.3 (≈ 1.91 µg/mL) | – | – | – | – |
| O/N=C(\NC1CCCCC1)c1ccccc1Oc1ccccc1 | > 30 | > 50 | > 90 | > 10 | 0.62 (≈ 2 µM) | 62.6 (≈ 202 µM) | 73.4 (≈ 236 µM) | 4.43 | 4.41 (≈ 14.2 µM) | 1.07 | 45 | 767 | 0.0667 | 100 (≈ 31 µg/mL) | – | – | – | – |
